Data from patent US20090175882A1, “METHODS AND COMPOSITIONS FOR TREATING HYPERALGESIA” (IRM LLC, priority 2006, published 2009).

Tests used:
rat TRPA1 = rat TRPA1 (Rattus norvegicus, UniProt Q6RI86); assay: Block of rat TRPA1 (data not shown); format: cell-based
mouse TRPA1 = biological target: T1, mouse TRPA1 (Mus musculus, UniProt Q8BLA8); assay: Whole-cell electrophysiology of TRPA1-expressing CHO cells (pressure, hyperosmolarity, cold); format: cell-based; conditions: data not shown
T1 construct: expressed in transfected cells; host or cells: CHO cells (tetracycline-induced for PatchXpress; mTRPA1-pcDNA5 named for the transient labelling experiment)
T1 sequence (Q8BLA8 whole entry): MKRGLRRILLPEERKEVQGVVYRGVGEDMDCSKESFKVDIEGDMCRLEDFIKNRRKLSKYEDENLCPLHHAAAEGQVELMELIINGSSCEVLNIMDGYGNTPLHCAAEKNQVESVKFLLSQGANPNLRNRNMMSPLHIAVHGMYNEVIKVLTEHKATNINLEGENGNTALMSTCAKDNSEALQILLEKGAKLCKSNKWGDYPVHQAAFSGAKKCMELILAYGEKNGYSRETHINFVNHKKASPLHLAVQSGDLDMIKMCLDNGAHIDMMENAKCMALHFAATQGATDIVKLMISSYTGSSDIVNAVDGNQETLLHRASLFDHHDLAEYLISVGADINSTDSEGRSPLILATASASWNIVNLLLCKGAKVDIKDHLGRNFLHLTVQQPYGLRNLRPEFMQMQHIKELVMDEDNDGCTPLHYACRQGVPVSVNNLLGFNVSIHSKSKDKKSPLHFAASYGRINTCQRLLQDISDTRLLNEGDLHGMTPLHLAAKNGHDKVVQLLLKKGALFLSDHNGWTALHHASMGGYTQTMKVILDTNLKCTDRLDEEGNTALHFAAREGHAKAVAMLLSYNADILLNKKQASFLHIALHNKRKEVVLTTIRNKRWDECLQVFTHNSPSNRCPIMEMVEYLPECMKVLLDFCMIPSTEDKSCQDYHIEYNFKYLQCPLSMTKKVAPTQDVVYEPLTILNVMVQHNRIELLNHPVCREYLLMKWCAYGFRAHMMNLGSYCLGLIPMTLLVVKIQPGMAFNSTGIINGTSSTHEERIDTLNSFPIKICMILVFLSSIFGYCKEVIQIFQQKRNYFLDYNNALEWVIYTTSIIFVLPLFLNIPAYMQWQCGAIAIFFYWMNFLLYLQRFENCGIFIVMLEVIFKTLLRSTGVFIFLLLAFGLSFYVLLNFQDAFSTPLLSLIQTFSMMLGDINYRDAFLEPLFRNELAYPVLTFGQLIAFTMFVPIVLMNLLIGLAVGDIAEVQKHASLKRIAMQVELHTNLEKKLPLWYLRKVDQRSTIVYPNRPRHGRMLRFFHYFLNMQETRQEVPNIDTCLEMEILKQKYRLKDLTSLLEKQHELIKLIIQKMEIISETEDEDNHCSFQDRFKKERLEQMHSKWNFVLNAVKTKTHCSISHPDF
Excerpt: We tested if TRPA1 is activated by mechanical forces. The electrophysiological behavior of thermoTRP-expressing Chinese Hamster Ovary (CHO) cells was investigated with two different assays of mechanical stress—pressure application using the recording pipette and changes in external osmolarity.
Mechanosensory neurons are often classified as high- or low-threshold, characterizing responses to pain and touch, respectively. We tested the mechanical threshold of TRPA1 by applying a wide range of negative pipette pressures (FIG. 1C). TRPA1-expressing CHO cells are activated at −90 mmHg or higher, consistent with native high-threshold mechanical receptors involved in sensing pain (Cho et al., J Neurosci 22:1238, 2002). […] Gadolinium (Gd^3+) is considered a blocker of native mechanically-gated ion channels in animal tissues (Martinac et al., Physiol Rev 81:685, 2001). […] FM1-43 is a styryl dye that specifically labels sensory cells by entering through open transduction channels. […] Furthermore, it was observed that 10 μM of FM1 -43 was able to block cinnamaldehyde-induced currents in TRPA1-expressing CHO cells (n=8).
To ensure that the mechanical response we observe is not an artifact of heterologous expression system, we tested if native TRPA1-expressing neurons also respond to such stimuli. 5/6 cinnamaldehyde-sensitive (presumptive TRPA1-expressing) DRG neurons responded to an application of −200 mmHg of suction, while 0/21 cinnamaldehyde insensitive neurons responded (16 of 21 were capsaicin-sensitive) (FIG. 2B). Millimolar camphor was recently reported to inhibit basal currents and cold or agonist-activation of TRPA1.
Mammalian cell electrophysiology: ThermoTRP-expressing CHO cells (rat TRPV1, rat TRPV2, mouse TRPV3, rat TRPV4, mouse TRPM8, and mouse TRPA1), control CHO cells, and cultured rat DRG neurons were prepared as described in Story et al., Cell 112:819, 2003; and Bandell et al., Neuron 41:849, 2004. Electrophysiological recordings were performed as described in Bandell et al., Neuron 41:849, 2004. Briefly, CHO cells were clamped at −60 mV and 0.8 second ramps from −80 mV to +80 mV were run every 4 seconds. Currents from DRG neurons were recorded at −60 mV and for their current-voltage curve, 300 ms voltage step at +20 mV was used 40 ms before 800 ms ramp from -80 mV to +80 mV to minimize contamination of voltage gated Na^+ or Ca^2+ current. The pipette solution for temperature and hyperosmotic experiments consisted of (in mM) 140 CsCl, 5 EGTA, 10 HEPES, 2 MgATP, 0.2 NaGTP, titrated to pH 7.4 with CsOH. The base external solution for these experiments consisted of (in mM) 140 NaCl, 5KCl, 10 HEPES, 2CaCl2, 1MgCl2, titrated to pH 7.4 with NaOH. Mannitol was used to adjust osmolarity for hypertonic solutions. For mouse TRPV3 and rat TRPV2, external calcium was replaced with 5 mM EGTA. Gluconate was substituted for chloride in (±)-pressure and hypotonic experiments to eliminate the potential for endogenous swelling-activated chloride currents. For these experiments, pipette solution (295 mOsm) consisted of (in mM) 125 Cs-gluconate, 15CsCl, 5 EGTA, 10 HEPES, 2 MgATP, 0.2NaGTP, titrated to pH 7.4 with CsOH. The external solution consisted of (in mM) 90 Na-gluconate, 10 NaCl, 5 K-gluconate, 10 HEPES, 2 CaCl2, 1 MgCl2, titrated to pH 7.4 with NaOH. Osmolarity was adjusted with mannitol to 220 mOsm (hypotonic) or 298 mOsm 15 (isotonic). (±)-Pressure was hydrostatically delivered by the recording pipette using syringe pumping (Hamill et al., Annu Rev Physiol 59:621, 1997) and monitored through Pressure Monitor (World Precision Instruments). Warner temperature controller (TC-324B and CL-100) was used for the heating or cooling the perfused bath solutions. […] The number of cells (n) tested with -100 mmHg to −300 mmHg, ˜+100 mmHg, 450 mOsm, and 220 mOsm for each cell type, respectively, are: CHO cells, n=7, 14, 5, 12; TRPV1, n=6, 5, 7, 5; TRPV2, n=4, 5, 3, 5; TRPV3, n=3, 2, 3, 0; TRPM8, n=12, 4, 10, 0. […]

Chain of rat TRPA1 (Q6RI86 whole entry): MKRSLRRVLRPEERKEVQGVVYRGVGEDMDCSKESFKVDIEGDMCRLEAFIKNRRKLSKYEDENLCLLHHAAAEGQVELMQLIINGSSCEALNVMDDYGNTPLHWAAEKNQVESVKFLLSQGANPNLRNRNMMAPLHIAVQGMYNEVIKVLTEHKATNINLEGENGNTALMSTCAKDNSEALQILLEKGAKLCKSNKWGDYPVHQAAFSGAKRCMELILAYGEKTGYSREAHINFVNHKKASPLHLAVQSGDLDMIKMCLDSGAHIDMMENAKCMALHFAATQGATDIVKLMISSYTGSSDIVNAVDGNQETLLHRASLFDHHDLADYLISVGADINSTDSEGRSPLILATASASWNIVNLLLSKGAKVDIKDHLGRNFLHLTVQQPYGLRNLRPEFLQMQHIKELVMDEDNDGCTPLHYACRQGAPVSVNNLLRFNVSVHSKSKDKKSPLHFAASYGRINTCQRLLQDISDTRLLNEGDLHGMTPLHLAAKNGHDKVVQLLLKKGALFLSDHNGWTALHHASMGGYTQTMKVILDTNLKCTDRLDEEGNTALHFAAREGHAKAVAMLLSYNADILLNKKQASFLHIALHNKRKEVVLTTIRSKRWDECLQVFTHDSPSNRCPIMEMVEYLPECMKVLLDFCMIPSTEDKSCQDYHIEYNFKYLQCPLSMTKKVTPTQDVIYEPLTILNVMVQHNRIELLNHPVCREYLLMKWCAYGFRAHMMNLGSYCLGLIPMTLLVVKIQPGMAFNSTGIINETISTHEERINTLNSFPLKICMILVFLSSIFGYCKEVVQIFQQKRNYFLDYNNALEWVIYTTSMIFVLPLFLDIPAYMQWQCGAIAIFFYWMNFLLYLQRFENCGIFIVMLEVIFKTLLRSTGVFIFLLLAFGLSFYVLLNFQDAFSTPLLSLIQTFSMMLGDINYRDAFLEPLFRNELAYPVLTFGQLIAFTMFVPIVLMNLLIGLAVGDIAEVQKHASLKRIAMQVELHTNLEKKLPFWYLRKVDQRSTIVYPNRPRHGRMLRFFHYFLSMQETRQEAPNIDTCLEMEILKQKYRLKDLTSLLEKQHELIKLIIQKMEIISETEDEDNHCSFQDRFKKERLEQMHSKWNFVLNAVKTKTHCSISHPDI

- block of rat TRPA1 (rat TRPA1): blocked
- block of TRPA1 responses in CHO cells induced by cold (mouse TRPA1): blocked
- block of TRPA1 responses in CHO cells induced by pressure (mouse TRPA1): blocked
SMILES: CC(=Cc1ccc(Cl)cc1)C(C)=NO [Compound 18, (Z)-4-(4-chlorophynyl)-3-methylbut-3-en-2-oxime]
